Literature values, collected in patent US20230279502A1, “IDENTIFICATION OF ESTROGEN RECEPTOR POSITIVE (ER+) BREAST CANCERS THAT WILL NOT DEVELOP TAMOXIFEN RESISTANCE” (Rutgers, The State University of New Jersey, priority 2020, published 2023).

Legend:
ER+ breast cancers = conditions: ER+ breast cancer patients treated with tamoxifen
human cancer cell lines = conditions: different human cancer cell lines, based on expression levels of the read-out genes; high AUCs = decreased sensitivity

CC/C(=C(\c1ccccc1)c1ccc(OCCN(C)C)cc1)c1ccccc1 [tamoxifen]
Treated patients that develop therapeutic resistance (ER+ breast cancers): ~30% | Sensitivity to tamoxifen treatment (area under the dose-response curve) (human cancer cell lines): decreased sensitivity
